Results as given in patent US20060135625A1, “Method of administering split doses of a vascular targeting agent” (priority 2002, published 2006).

Key:
[1] = test system: tubulin; details: U.S. Pat. No. 4,996,237; cited from earlier work
[2] = human plasma; cited from earlier work
[3] = test system: murine adenocarcinoma NT (CaNT) tumor; assay: in vitro clonogenic (colony-forming) assay of tumor cells isolated from treated CaNT tumor-bearing animals; format: in vivo, mice
Protocol: (§1) 1) Transplanted tumor model. A murine adenocarcinoma NT (“CaNT”) tumor was transplanted from a syngeneic donor and implanted subcutaneously onto the rear dorsum of 10-16 week old female CBA/Gy f TO mice, by injecting 0.05 ml of a crude cell suspension prepared by mechanical dissociation of the excised. Tumors were selected for treatment with the VTA CA4DP when the geometric mean diameter (“GMD”) reached 5-6.5 mm (150-300 mg), approximately 3-4 weeks after implantation.
(§2) In each of the following Examples 1-4, CA4DP (OXiGENE Inc, Watertown, Mass., USA) was dissolved in 0.9% saline at appropriate concentrations to allow each dose to be injected i.p. in 0.1 ml per 10 g body weight. 0.9% saline was used for control treatments.
To compare the anti-tumor effect of single and divided VTA dose scheduling, the survival of tumor cells isolated from a treated CaNT tumor-bearing animals was assessed by an in vitro clonogenic (colony-forming) assay, as described previously (Chaplin et al., Anticancer Research, 1999, 19: 189-196). Tumors were excised 18-24 h after CA4P injection. Two tumors were combined for each data point, weighed, minced with scissors and then disaggregated for 1 hour at 37° C. in an enzyme cocktail of 1 mg/ml pronase, 0.5 mg/ml DNase and 0.5 mg/ml collagenase. Following digestion, samples were passed through a 25G needle and a 35 μm filter to obtain a single cell suspension. Haemocytometer counts of trypan-blue excluding cells were made and known numbers of viable cells added to a feeder layer of heavily irradiated V79-379A Chinese hamster cells. After 7-10 days incubation, colonies were fixed, stained with methylene blue and counted. The data were calculated as surviving fraction per gram of tumor, which is a product of relative surviving fraction and relative cell yield per gram of tumor. Each experimental group was repeated at least 3 times, so that at least 6 tumors contribute to each data point.

[4] = test system: murine adenocarcinoma NT (CaNT) tumor; assay: tumor growth delay in CaNT tumor-bearing mice; format: in vivo
Protocol: as §1, §2
(§3) The anti-tumor effect of split dosing therapy was also assessed by an analysis of tumor growth delay in both CaNT and T138 tumor-bearing mice. For experiments involving the CaNT, dose groups comprised 5 to 6 animals, whereas for the T138, 10 to 15 animals were used. Following initial drug treatment, tumor growth was determined by measuring the diameter of each tumor in 3 orthogonal orientations two or three days each week.
The effect of repeated split VTA dosing therapy was also assessed by an analysis of tumor growth delay in both CaNT tumor-bearing mice. […] Repeated administration of total daily dose (50 mg/kg) 5 days a week for 2 weeks, produced a significant delay in tumor growth of approximately 2 days. Tumor growth delay was further improved by repeat administration of split dosing (2 doses of 25 mg/kg per day separated by a 6 hour interval), 5 days a week for 2 weeks (growth delay of approximately 5 days).

[5] = test system: spontaneous T138 mammary tumors; assay: tumor growth delay in T138 tumor-bearing mice; format: in vivo
Protocol: (§4) 2) Spontaneous T138 tumor model. The T138 tumor-bearing mice (“T138”) spontaneously developed mammary tumors between 5 and 18 months of age due to genetic predisposition.
as §2, §3

[6] = test system: CaNT tumor vasculature; assay: functional vascular volume (Hoechst 33342) in CaNT tumors; format: in vivo, mice; details: for reduction in perfused vascular volume: CaNT, 24 hours post-treatment
Protocol: as §1, §2
(§5) The effect of VTA dose splitting on the tumor vascular response was also investigated in both CaNT and T138 tumor types, by measuring the functional vascular volume at 24 hours following treatment with single or split doses of CA4DP. Functional vascular volume is defined as the volume of tumor tissue perfused by tumor blood vessels, and is measured using the fluorescent DNA-binding dye Hoechst 33342 (Sigma-Aldrich Company Ltd., Dorset, UK) (Smith et al, British Journal of Cancer, 1988, 57: 247-253). The dye was dissolved in 0.9% saline at 6.25 mg/ml and injected i.v. at a dose of 10 mg/kg at 24 hours post-treatment. Tumors were excised and frozen 1 minute later. Sections were cut at three levels and observed under UV illumination. Functional vessels were identified by the fluorescent outline of perivascular tissue and vascular volumes were determined using a random point scoring system based on that described by Chalkley (Chalkley, J. Natl Cancer Inst., 1943, 4: 47-53). At least 100 fields were scored at each of the three tumor levels and the results for treated tumors were expressed as a percentage of control values.

[7] = test system: T138 tumor vasculature; assay: functional vascular volume (Hoechst 33342) in T138 tumors; format: in vivo, mice; details: 24 hours post-treatment
Protocol: as §4, §2
as §5, with “The dye was dissolved in 0.9% saline at 6.25 mg/ml and injected i.v. at a dose of 10 mg/kg at 24 hours post-treatment. Tumors were excised and frozen 1 minute later. Sections were cut at three levels and observed under UV illumination.” left out

[8] = test system: microtubule assembly in tumor endothelium; details: cited from earlier work

| Compound | tubulin binding activity [1] | solubility [2] | cell killing (surviving fraction of tumor cells) ([3]; two equal doses of 100 mg/kg i.p. separated by 1-6 hours, compared with a single 200 mg/kg dose, tumors excised 18-24 h after injection) | cell killing (surviving fraction of tumor cells) ([3]; two equal doses of 100 mg/kg, time interval between doses 2 to 4 hours (p<0.05)) | cell killing (surviving fraction of tumor cells) ([3]; unequal doses separated by 4 hours, compared with equal doses) | tumor growth delay ([4]; CaNT mice, single 200 mg/kg dose i.p.) | tumor growth delay ([4]; CaNT mice, two equal doses of 100 mg/kg separated by 3 hours) | tumor growth delay ([4]; CaNT, repeated split dosing, 2 doses of 25 mg/kg per day separated by 6 hours, 5 days a week for 2 weeks) | tumor growth delay ([4]; CaNT, repeated total daily dose 50 mg/kg, 5 days a week for 2 weeks) | effect on tumor growth relative to control ([4]; CaNT, single dose 50 mg/kg) | tumor growth delay ([5]; single dose of 500 mg/kg) | tumor growth delay ([5]; two equal doses of 250 mg/kg separated by 3 hours) | reduction in perfused vascular volume ([6]; single 50 mg/kg dose) | reduction in perfused vascular volume ([6]; two 25 mg/kg doses separated by 3 hours) | reducing the fraction of perfused vascular volume ([6]; two equal split doses compared with a single dose, observed in both CaNT and T138 tumor models) | reduction of perfused vascular volume ([7]; T138, single dose 200 mg/kg) | amount of perfused vascular tissue, of the control value ([7]; T138, two split doses of 100 mg/kg) | inhibition of microtubule assembly [8] |
| --- | --- | --- | --- | --- | --- | --- | --- | --- | --- | --- | --- | --- | --- | --- | --- | --- | --- | --- |
| COc1ccc(/C=C\c2cc(OC)c(OC)c(OC)c2)cc1O [CA-4, Combretastatin A-4] | found to have tubulin binding activity | insolubility | – | – | – | – | – | – | – | – | – | – | – | – | – | – | – | – |
| COc1ccc(/C=C\c2cc(OC)c(OC)c(OC)c2)cc1OP(=O)([O-])[O-].[Na+].[Na+] [CA4DP, Combretastatin A-4 Disodium Phosphate Prodrug] | – | – | significantly more cell killing | most pronounced | less effective than equal doses of treatment | did not delay growth relative to control | approximately 3 days | approximately 5 days | approximately 2 days | only minimal effects on tumor growth | no effect on tumor growth | approximately 4 days | 40% | 80% | significantly more effective than a single dose | completely ineffective | 50% | potent inhibitor of microtubule assembly |
